What all share (assay): NCI anticancer screen, dose series, 48 h
The subject of experiment [1] is UACC-257 melanoma.
In experiment [2] the test system is KM12 colon.
Experiment [3] has as its system SF-539 CNS.
In experiment [4] the test system is MCF7 breast.
Experiment [5] relates to NCI-H23 lung.
For experiment [6], the system named is SK-MEL-28 melanoma.
Experiment [7] has as its system SR leukemia.
Experiment [8] has as its system SK-OV-3 ovarian.
Experiment [9] concerns A498 renal.
In experiment [10] the test system is HOP-92 NSCLC.

SMILES strings stand for the structures.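 Interpolation was linear, between the two tested concentrations surrounding the appropriate level; five concentrations were tested over 48 hours in 96-well plates. At the TGI there is no net growth.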 Bounds are passed on as bounds.

With `Cc1cc(C)nc(NS(=O)(=O)c2ccc(NC(=O)c3ccc4nc5ccccc5c(Nc5ccc(S(=O)(=O)Nc6nc(C)cc(C)n6)cc5)c4c3)cc2)n1`, the TGI in experiment [1] was above 100 µM; in experiment [2] it was above 100 µM; in experiment [3], above 100 µM; in experiment [4], 84.5 µM; in experiment [5] it was above 100 µM; in experiment [6], above 100 µM. In addition, the TGI in experiment [7], in experiment [8], in experiment [9] and in experiment [10] was above 100 µM each time.

On to `CCN(CC)c1ccc2cc(-c3csc(-c4ccc(N(C)C)cc4)n3)c(=O)oc2c1`, for which the TGI in experiment [1], in experiment [2], in experiment [3], in experiment [4], in experiment [6] and in experiment [7] was above 100 µM each time. The TGI in experiment [8] and in experiment [10] was above 100 µM throughout.

Take `COc1cccc(-c2cc(=O)c3cc(N4CCCC4)ccc3[nH]2)c1`: the TGI in experiment [1] is above 10 µM; in experiment [2], 0.0111 µM; in experiment [3], below 0.001 µM; in [4] it was above 4.67 µM; in experiment [5], 0.0962 µM; in experiment [6] it was above 10 µM. Moreover, the TGI in experiment [7] was below 0.001 µM; in experiment [10], above 10 µM.

`NNC(=O)CSc1nnc(CCCCCCCCc2nnc(SCC(=O)NN)o2)o1`: the TGI in [1], in experiment [2], in [4], in experiment [5], in experiment [6] and in [7] was above 100 µM in each case. In addition, the TGI in experiment [8], in experiment [9] and in experiment [10] was above 100 µM in each case.

In the case of `C/C(CC(O)(C(F)(F)F)C(F)(F)F)=N/Nc1ccc([N+](=O)[O-])cc1[N+](=O)[O-]`, the TGI in [1] was above 10 µM; in experiment [2] it was above 10 µM; in experiment [3] it was above 10 µM; in [4], above 10 µM; in experiment [5], 7.27 µM; in experiment [6] it was above 10 µM. Further, the TGI in experiment [7] is above 10 µM; in experiment [8], 6.3 µM; in [9], 8.37 µM; in [10], 4.7 µM.

For the molecule `Cn1c2c(c3c(=O)[nH]ncc31)CCCc1ccccc1-2`, the TGI in [1] is above 100 µM; in experiment [2] it was above 100 µM; in experiment [3], above 100 µM; in experiment [4] it was 53 µM; in experiment [5], above 100 µM; in experiment [7], 51.8 µM. Besides, the TGI stood at 64 µM in experiment [8], 57.3 µM in experiment [9] and 41.3 µM in experiment [10].

With `COc1cc(OC)cc(Oc2nc3c(N)cc(C(F)(F)F)cc3nc2-c2ccccc2)c1`, the TGI in [1] is above 100 µM; in [2], 50.3 µM; in experiment [3], above 100 µM; in experiment [4] it was 99 µM; in [5], above 100 µM; in experiment [6] it was above 100 µM. For the same molecule, the TGI in [7] was 75.7 µM; in experiment [8], above 100 µM; in [9] it was above 100 µM; in experiment [10] it was above 100 µM.

On to `S=c1sscc1N1CCSc2ssc(=S)c21`, for which the TGI in [1] is above 100 µM; in experiment [2] it was above 100 µM; in experiment [3], above 100 µM; in experiment [4] it was above 100 µM; in [5], 69.8 µM; in experiment [6], above 100 µM. The TGI is above 100 µM in experiment [7], 77.4 µM in [9] and 31 µM in [10].

On to `CCOC(=O)/C=C1\C[C@H](NC(=O)OCc2ccccc2)C(=O)N1CC(=O)OCC`, for which the TGI in experiment [1], in [2], in experiment [3], in experiment [4], in experiment [5] and in experiment [6] was above 100 µM each time. For the same molecule, the TGI in [7], in [8], in experiment [9] and in [10] was above 100 µM each time.

For the molecule `O[C@H]1[C@@H]2OC[C@@H](O)[C@H](OCc3ccccc3)[C@@](COCc3ccccc3)(O2)[C@@H]1OCc1ccccc1`, the TGI in [1] worked out at 28.7 µM; in experiment [2] it was 35.6 µM; in [3], 31 µM; in experiment [4] it was 39.6 µM; in [5], 32.3 µM; in experiment [6], 27.3 µM. Besides, the TGI is above 100 µM in [7], 36.6 µM in [8], 31.4 µM in [9] and 26.3 µM in [10].

As to `CCCC(=O)OC1=C(c2ccccc2)Sc2ccccc2-n2cccc21`, the TGI in experiment [1], in experiment [2], in experiment [4], in experiment [5], in experiment [6] and in experiment [7] was above 10 µM each time. Besides, the TGI in experiment [8] and in [10] was above 10 µM in each case.

Regarding `CCOC(=O)c1c(CN2CCOCC2)n(Cc2ccccc2)c2c1cc(O)c1nc(C)c(C)nc12`, the TGI is above 100 µM in [1]; above 100 µM in [2]; 87 µM in [3]; 34.5 µM in [4]; above 100 µM in experiment [5]; above 100 µM in [6]. Moreover, the values for the TGI in experiment [7], in experiment [8] and in experiment [9] were above 100 µM, above 100 µM and 55.3 µM, respectively.

For `O=c1cc(-c2cccc(Br)c2)[nH]c2cc3c(cc12)OCO3`, the TGI is above 100 µM in [1]; 25.4 µM in experiment [2]; 6.58 µM in experiment [3]; above 100 µM in [4]; 12.8 µM in experiment [5]; above 100 µM in experiment [6]. Moreover, the values for the TGI in experiment [7], in [8] and in experiment [9] were above 100 µM, 17 µM and 13.8 µM, respectively.

With `CC(C)C(=O)CP(=O)(O)O`, the TGI in experiment [1], in experiment [2], in experiment [3], in experiment [4], in experiment [5] and in experiment [6] was above 100 µM throughout. Further, the TGI in experiment [7], in experiment [8], in [9] and in experiment [10] was above 100 µM in each case.

Consider `CC(=O)Nc1ccc2c3c(cc(O)c2c1)N(C(=O)CCCCCC(=O)Nc1ccc2c4c(cc(O)c2c1)N(C(=O)OC(C)(C)C)CC4CCl)CC3CCl` (stereo not drawn), for which the TGI in [1] was above 28.6 µM; in [2], 13.6 µM; in experiment [3] it was 13.1 µM; in [4], above 35.5 µM; in [5], 3.59 µM; in experiment [6], above 63.2 µM. For the same molecule, the TGI is 4.3 µM in [7], above 47.6 µM in experiment [8], 5.31 µM in experiment [9] and 23.7 µM in [10].

Consider `C=C(C)COC(=O)COCC(=O)OCC(=C)C`, for which the TGI in experiment [1], in experiment [2], in [4], in [5], in experiment [6] and in experiment [7] was above 100 µM throughout. The TGI in experiment [8], in experiment [9] and in [10] was above 100 µM throughout.

For `O=Cc1ccc2[nH]c(=O)oc2c1`, the TGI in [1], in experiment [2], in [3], in experiment [4], in experiment [5] and in [6] was above 100 µM throughout. Moreover, the TGI in experiment [7], in experiment [8] and in experiment [9] was above 100 µM in each case.

With `Cc1ccc2c(c1)C/C(=C\c1ccccc1C(=O)O)C2=O`, the TGI in experiment [1], in experiment [2], in experiment [3], in [4], in experiment [5] and in [6] was above 100 µM in each case. The TGI was 91.3 µM in experiment [7], above 100 µM in experiment [9] and above 100 µM in [10].

For `O=c1c2cc([N+](=O)[O-])cnc2sn1-c1ccc(Br)cc1`, the TGI in experiment [1], in experiment [2], in [3], in experiment [4], in experiment [5] and in experiment [6] was above 100 µM in each case. Moreover, the TGI in experiment [7] was 60.7 µM; in [8] it was 99 µM; in experiment [10], 54.7 µM.

For `O=C(CC(C(=O)c1cccs1)c1ccccc1)c1ccccc1O` (stereo not drawn), the TGI in experiment [1] was above 100 µM; in experiment [2] it was above 100 µM; in experiment [3] it was above 100 µM; in [4], above 38.7 µM; in [5] it was above 100 µM; in experiment [6] it was above 100 µM. Also, the TGI is above 52.5 µM in experiment [7], above 100 µM in experiment [8] and above 38.9 µM in [10].

Consider `COc1ccc(NC(C)=O)cc1N1C(=O)/C(=C\c2cccc(Oc3ccccc3)c2)SC1c1ccccc1` (stereo not drawn), for which the TGI was above 100 µM in experiment [1]; above 100 µM in [2]; above 100 µM in [4]; above 100 µM in [5]; above 100 µM in experiment [6]; 29.4 µM in experiment [7]. In addition, the figures for the TGI in experiment [8], in experiment [9] and in [10] were above 100 µM, above 100 µM and 79.6 µM, respectively.

For the molecule `CCCNC(=O)c1cc(NC(=O)c2cc(NC(=O)CCS(=O)(=O)OC)cn2C)cn1C`, the TGI in [1] is 53.5 µM; in experiment [2], above 61.5 µM; in experiment [4] it was above 100 µM; in experiment [5] it was 40.7 µM; in [6], above 100 µM; in experiment [7], above 100 µM. Moreover, the TGI in experiment [8] is 22.8 µM; in [9], above 100 µM; in [10], 47 µM.

Regarding `COc1cc(C2SC(N)=Nc3c2c(C)nn3C(=O)c2ccc(Cl)cc2)ccc1O` (stereo not drawn), the TGI in experiment [1], in experiment [2], in experiment [3], in [4], in [5] and in [6] was above 10 µM each time. The TGI in [7], in [8] and in experiment [10] was above 10 µM in each case.

Take `O=C(NC(Cc1ccccc1)P(=O)(O)c1ccccc1)OCc1ccccc1` (stereo not drawn): the TGI in [1], in [2], in [4], in experiment [5], in experiment [6] and in [7] was above 100 µM in each case. In addition, the TGI in experiment [8] and in experiment [10] was above 100 µM in each case.

Take `OCC1(CNc2cc(Cl)ncn2)CCC1`: the TGI in [1], in experiment [2], in experiment [3], in experiment [4], in experiment [5] and in experiment [6] was above 100 µM in each case. Also, the TGI in experiment [7], in experiment [9] and in [10] was above 100 µM in each case.

With `CC1OC(n2cnc3c(N)nc(Cl)nc32)C(C)(O)C1O` (stereo not drawn), the TGI in [1], in experiment [2], in experiment [3], in [4], in experiment [5] and in experiment [7] was above 25 µM throughout. Also, the TGI in [8], in experiment [9] and in experiment [10] was above 25 µM each time.

Regarding `Cc1ccc(NCc2nnc3c(-c4ccccc4)nc4ccccc4n23)cc1`, the TGI in experiment [1], in experiment [2], in experiment [3], in [4], in experiment [6] and in experiment [7] was above 100 µM in each case. Also, the TGI in experiment [8] was above 100 µM; in experiment [9] it was above 100 µM; in experiment [10] it was 50 µM.

Regarding `CC(C)(C)c1cc2c(O)c(c1)COCc1cc(C(C)(C)C)cc(c1O)COCc1cc(C(C)(C)C)cc(c1O)COC2`, the TGI in [1], in experiment [2], in experiment [4], in experiment [5], in [6] and in experiment [7] was above 100 µM throughout. Moreover, the TGI in [8], in [9] and in [10] was above 100 µM throughout.

`CN1C(=O)C(O)C[C@@H]1c1ccc(F)cc1` (stereo partly drawn): the TGI in [1], in [3], in [4], in experiment [5], in experiment [6] and in [7] was above 100 µM in each case. The TGI in [8] and in [10] was above 100 µM each time.

Source of the values: PubChem BioAssay (NCI).
